How the values were obtained:
[1] = tested on: HCT116 WT cells; assay: HCT116 WT cell proliferation / viability (CellTiter-Glo, 6 days); assay type: cell-based; details: Homo sapiens, HCT-116, 144 h, HCT116 WT cells, 6 days, CellTiter-Glo; read-out: HCT-116 WT IC50
Procedure, shortened: (§1)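 Viability read by CellTiter-Glo after 6-day compound exposure of MTAP-null and wild-type HCT116 cells grown in RPMI 1640 with 10% FBS. Dosing used 1:3 steps from 1 or 10 μM (8-9 points) or 1:2 steps from 10 or 50 μM (22 points); IC50 taken where fitted curve crosses 50% of control.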

[2] = tested on: HCT116 MTAP null cells; assay: HCT116 MTAP null cell proliferation / viability (CellTiter-Glo, 6 days); assay type: cell-based; details: HCT116-MTAP null, 144 h, HCT116 MTAP null cells, 6 days, CellTiter-Glo; read-out: HCT-116 MTAP null IC50
Procedure, shortened: as §1

IC50 [1] [µM] | IC50 [2] [nM] | SMILES
25.6 | 397 | CC(C)N(Cc1ccc(C2CC2)nc1)C(=O)c1cc2c3c(c(N)nc2cn1)[C@@H](C)OC3 [Example 412, (3R)-4-amino-N-((6-cyclopropyl-3-pyridinyl)methyl)-3-methyl-N-(2-propanyl)-1,3-dihydrofuro[3,4-c][1,7]naphthyridine-8-carboxamide]
> 50 | 5860 | C[C@@H]1OCc2c1c(N)nc1cnc(C(=O)N(C)Cc3ccc(C4CC4)cn3)cc21 [Example 414, (3S)-4-amino-N-((5-cyclopropyl-2-pyridinyl)methyl)-N,3-dimethyl-1,3-dihydrofuro[3,4-c][1,7]naphthyridine-8-carboxamide]
25.1 | 449 | C[C@H]1OCc2c1c(N)nc1cnc(C(=O)N(C)Cc3ccc(C4CC4)cn3)cc21 [Example 415, (3R)-4-amino-N-((5-cyclopropyl-2-pyridinyl)methyl)-N,3-dimethyl-1,3-dihydrofuro[3,4-c][1,7]naphthyridine-8-carboxamide]
8.23 | 62 | C[C@H]1OCc2c1c(N)nc1cnc(C(=O)N(Cc3ccc(C4CC4)cn3)C3CC3)cc21 [Example 416, (3R)-4-amino-N-cyclopropyl-N-((5-cyclopropyl-2-pyridinyl)methyl)-3-methyl-1,3-dihydrofuro[3,4-c][1,7]naphthyridine-8-carboxamide]
17.6 | 5610 | C[C@@H]1OCc2c1c(N)nc1cnc(C(=O)N(Cc3ccc(C4CC4)cn3)C3CC3)cc21 [Example 417, (3S)-4-amino-N-cyclopropyl-N-((5-cyclopropyl-2-pyridinyl)methyl)-3-methyl-1,3-dihydrofuro[3,4-c][1,7]naphthyridine-8-carboxamide]
10 | 116 | CCN(Cc1ccc(Cl)cn1)C(=O)c1ccc2nc(N)c3c(c2c1)CO[C@@H]3C [Example 421, (3R)-4-amino-N-((5-chloro-2-pyridinyl)methyl)-N-ethyl-3-methyl-1,3-dihydrofuro[3,4-c]quinoline-8-carboxamide]
10.7 | 6740 | CCN(Cc1ccc(C(F)(F)F)cn1)C(=O)c1ccc2nc(N)c3c(cnn3C)c2c1 [Example 422, 4-amino-N-ethyl-3-methyl-N-((5-(trifluoromethyl)-2-pyridinyl)methyl)-3H-pyrazolo[3,4-c]quinoline-8-carboxamide]
3.98 | 64 | CC(C)N(Cc1ccc(Cl)cn1)C(=O)c1ccc2nc(N)c3c(c2c1)CO[C@@H]3C [Example 423, (3R)-4-amino-N-((5-chloro-2-pyridinyl)methyl)-3-methyl-N-(2-propanyl)-1,3-dihydrofuro[3,4-c]quinoline-8-carboxamide]
1.34 | 32 | C[C@H]1OCc2c1c(N)nc1cnc(C(=O)N(Cc3ccc(OC(F)F)nn3)CC3CC3)cc21 [Example 424, (3R)-4-amino-N-(cyclopropylmethyl)-N-((6-(difluoromethoxy)-3-pyridazinyl)methyl)-3-methyl-1,3-dihydrofuro[3,4-c][1,7]naphthyridine-8-carboxamide]
> 50 | 2710 | C[C@@H]1OCc2c1c(N)nc1cnc(C(=O)N(Cc3ccc(OC(F)F)nn3)CC3CC3)cc21 [Example 425, (3S)-4-amino-N-(cyclopropylmethyl)-N-((6-(difluoromethoxy)-3-pyridazinyl)methyl)-3-methyl-1,3-dihydrofuro[3,4-c][1,7]naphthyridine-8-carboxamide]
6.39 | 203 | Cc1nn(C)c2c1c(N)nc1ccc(C(=O)N(Cc3ccc(C(F)(F)F)cn3)C(C)C)cc12 [Example 432, 4-amino-1,3-dimethyl-N-(2-propanyl)-N-((5-(trifluoromethyl)-2-pyridinyl)methyl)-1H-pyrazolo[4,3-c]quinoline-8-carboxamide]
23.9 | 584 | CC(C)N(Cc1cnc(C(F)(F)F)cn1)C(=O)c1ccc2nc(N)c3c(c2c1)CO[C@@H]3C [Example 434, (3R)-4-amino-3-methyl-N-(2-propanyl)-N-((5-(trifluoromethyl)-2-pyrazinyl)methyl)-1,3-dihydrofuro[3,4-c]quinoline-8-carboxamide]
0.187 | 12 | C[C@H](c1ncccn1)N(Cc1ccc(C(F)F)cn1)C(=O)c1ccc2nc(N)c3c(c2c1)COC3 [Example 438, 4-amino-N-((5-(difluoromethyl)-2-pyridinyl)methyl)-N-((1R)-1-(2-pyrimidinyl)ethyl)-1,3-dihydrofuro[3,4-c]quinoline-8-carboxamide]
0.138 | 7 | C[C@H](c1ncccn1)N(Cc1ccc(Cl)cn1)C(=O)c1ccc2nc(N)c3c(c2c1)COC3 [Example 439, 4-amino-N-((5-chloro-2-pyridinyl)methyl)-N-((1R)-1-(2-pyrimidinyl)ethyl)-1,3-dihydrofuro[3,4-c]quinoline-8-carboxamide]
> 10 | 461 | C[C@@H](c1ncccn1)N(Cc1ccc(C(F)(F)F)nn1)C(=O)c1ccc2nc(N)c3c(c2c1)COC3 [Example 440, 4-amino-N-((1S)-1-(2-pyrimidinyl)ethyl)-N-((6-(trifluoromethyl)-3-pyridazinyl)methyl)-1,3-dihydrofuro[3,4-c]quinoline-8-carboxamide]

The next lines start with the compound.

SMILES | IC50 [1] [µM] | IC50 [2] [nM]
COC(=O)N1CCN(c2ccc(CN(C)C(=O)c3ccc4nc(N)c5c(c4c3)COC5)nc2)CC1 [Example 413, methyl 4-(6-((((4-amino-1,3-dihydrofuro[3,4-c]quinolin-8-yl)carbonyl)(methyl)amino)methyl)-3-pyridinyl)-1-piperazinecarboxylate] | 20.3 | 870
Nc1nc2cnc(C(=O)N(Cc3ccc(OC(F)F)nn3)CC3CC3)cc2c2c1COC2 [Example 418, 4-amino-N-(cyclopropylmethyl)-N-((6-(difluoromethoxy)-3-pyridazinyl)methyl)-1,3-dihydrofuro[3,4-c][1,7]naphthyridine-8-carboxamide] | 6.34 | 171
CCN(Cc1ccc(C(F)(F)F)cn1)C(=O)c1cc2c3c(c(N)nc2cc1F)COC3 [Example 419, 4-amino-N-ethyl-7-fluoro-N-((5-(trifluoromethyl)-2-pyridinyl)methyl)-1,3-dihydrofuro[3,4-c]quinoline-8-carboxamide] | 3.79 | 152
CCN(Cc1ccc(C(F)(F)F)cn1)C(=O)c1cc2c3c(c(N)nc2cc1Cl)COC3 [Example 420, 4-amino-7-chloro-N-ethyl-N-((5-(trifluoromethyl)-2-pyridinyl)methyl)-1,3-dihydrofuro[3,4-c]quinoline-8-carboxamide] | 8.36 | 248
Nc1nc2ccc(C(=O)N(Cc3ccc(OC(F)F)nn3)CC3CC3)cc2c2c1COC2 [Example 426, 4-amino-N-(cyclopropylmethyl)-N-((6-(difluoromethoxy)-3-pyridazinyl)methyl)-1,3-dihydrofuro[3,4-c]quinoline-8-carboxamide] | 4.22 | 96
CCN(Cc1ccc(C(F)(F)F)cn1)C(=O)c1cc2c(cc1F)nc(N)c1c2cnn1C [Example 427, 4-amino-N-ethyl-7-fluoro-3-methyl-N-((5-(trifluoromethyl)-2-pyridinyl)methyl)-3H-pyrazolo[3,4-c]quinoline-8-carboxamide] | 1.68 | 44
CCN(Cc1ccc(C(F)(F)F)cn1)C(=O)c1ccc2nc(N)c3ccncc3c2c1 [Example 428, 5-amino-N-ethyl-N-((5-(trifluoromethyl)-2-pyridinyl)methyl)benzo[c][2,6] naphthyridine-9-carboxamide] | 1.25 | 101
CN(Cc1ccc(C2=CCOCC2)cn1)C(=O)c1ccc2nc(N)c3c(c2c1)COC3 [Example 429, 4-amino-N-((5-(3,6-dihydro-2H-pyran-4-yl)-2-pyridinyl)methyl)-N-methyl-1,3-dihydrofuro[3,4-c]quinoline-8-carboxamide] | 31.8 | 1260
COC(=O)N1CC=C(c2ccc(CN(C)C(=O)c3ccc4nc(N)c5c(c4c3)COC5)nc2)CC1 [Example 430, methyl 6-((((4-amino-1,3-dihydrofuro[3,4-c]quinolin-8-yl)carbonyl)(methyl)amino)methyl)-3′,6′-dihydro[3,4′-bipyridine]-1′(2′H)-carboxylate] | 12.8 | 312
CC(C)N(Cc1ccc(C(F)(F)F)cn1)C(=O)c1ccc2[nH]c(=O)n3nccc3c2c1 [Example 431, 5-oxo-N-(2-propanyl)-N-((5-(trifluoromethyl)-2-pyridinyl)methyl)-5,6-dihydropyrazolo[1,5-c]quinazoline-9-carboxamide] | 23.5 | 14300
C[C@H](c1ncccn1)N(Cc1ccc(C(F)(F)F)cn1)C(=O)c1cc2c3c(c(N)nc2cc1F)COC3 [Example 435, 4-amino-7-fluoro-N-((1R)-1-(2-pyrimidinyl)ethyl)-N-((5-(trifluoromethyl)-2-pyridinyl)methyl)-1,3-dihydrofuro[3,4-c]quinoline-8-carboxamide] | 0.065 | 14
C[C@H](c1ncccn1)N(Cc1ccc(C#N)cn1)C(=O)c1cc2c3c(c(N)nc2cc1F)COC3 [Example 436, 4-amino-N-((5-cyano-2-pyridinyl)methyl)-7-fluoro-N-((1R)-1-(2-pyrimidinyl)ethyl)-1,3-dihydrofuro[3,4-c]quinoline-8-carboxamide] | 0.187 | 29
C[C@H](c1ncccc1F)N(Cc1ccc(Br)nn1)C(=O)c1cc2c3c(c(N)nc2cc1F)COC3 [Example 437, 4-amino-N-((6-bromo-3-pyridazinyl)methyl)-7-fluoro-N-((1R)-1-(3-fluoro-2-pyridinyl)ethyl)-1,3-dihydrofuro[3,4-c]quinoline-8-carboxamide] | 0.353 | 31

— US20240101570A1 (AMGEN INC., priority 2020, published 2024)
